Measured values from ChEMBL document CHEMBL4346732, “Inhibition of neutral lipid synthesis by avarols from a marine sponge” (Bioorg Med Chem Lett, 2019).

How the values were obtained:
[1] = Inhibition of SOAT-mediated oleic acid-induced [14C]cholesterol ester accumulation in CHOK1 cells after 6 hrs using [14C]oleic acid by […]; type: cell-based; details: Cricetulus griseus, CHO-K1, 6 h
[2] = Inhibition of DGAT-mediated oleic acid-induced [14C]neutral lipid synthesis in CHOK1 cells after 6 hrs using [14C]oleic acid by […]; type: cell-based; details: Cricetulus griseus, CHO-K1, 6 h
CHO-K1 = assay: Cytotoxicity against CHOK1 cells assessed as reduction in cell viability; type: cell-based; details: Cricetulus griseus
[3] = Inhibition of SOAT in CHOK1 cell microsomal fraction using [1-14C]oleoyl-CoA as substrate measured after 5 mins by TLC based method; design: species or system Cricetulus griseus
[4] = Inhibition of DGAT in CHOK1 cell microsomal fraction using [14C]palmitoyl-CoA as substrate measured after 15 mins TLC based method; design: species or system Cricetulus griseus
[5] = molecular target: T1, Sterol O-acyltransferase 1 (Chlorocebus aethiops, UniProt O77760); assay: Inhibition of African green monkey SOAT1 expressed in CHO cells using [1-14C]oleic acid incubated for 6 hrs by TLC based method; type: cell-based
T1 sequence (O77760 whole entry): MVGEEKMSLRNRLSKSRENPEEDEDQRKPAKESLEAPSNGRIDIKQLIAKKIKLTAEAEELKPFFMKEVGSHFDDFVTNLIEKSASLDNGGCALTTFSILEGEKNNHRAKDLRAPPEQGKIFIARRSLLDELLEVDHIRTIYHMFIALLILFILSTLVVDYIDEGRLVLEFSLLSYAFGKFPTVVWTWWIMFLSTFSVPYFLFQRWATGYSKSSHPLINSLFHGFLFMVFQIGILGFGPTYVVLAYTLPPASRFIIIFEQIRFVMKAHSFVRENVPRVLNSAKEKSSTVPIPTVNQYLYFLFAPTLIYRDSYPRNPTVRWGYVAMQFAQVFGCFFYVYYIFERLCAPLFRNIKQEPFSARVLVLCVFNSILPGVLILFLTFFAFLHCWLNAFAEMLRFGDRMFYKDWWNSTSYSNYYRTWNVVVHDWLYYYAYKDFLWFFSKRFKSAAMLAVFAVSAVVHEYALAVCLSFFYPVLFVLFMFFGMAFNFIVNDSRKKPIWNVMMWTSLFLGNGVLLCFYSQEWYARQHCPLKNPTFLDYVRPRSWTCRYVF

[6] = molecular target: T2, Sterol O-acyltransferase 2 (Chlorocebus aethiops, UniProt O77759); assay: Inhibition of African green monkey SOAT2 expressed in CHO cells using [1-14C]oleic acid incubated for 6 hrs by TLC based method; type: cell-based
T2 sequence (O77759 whole entry): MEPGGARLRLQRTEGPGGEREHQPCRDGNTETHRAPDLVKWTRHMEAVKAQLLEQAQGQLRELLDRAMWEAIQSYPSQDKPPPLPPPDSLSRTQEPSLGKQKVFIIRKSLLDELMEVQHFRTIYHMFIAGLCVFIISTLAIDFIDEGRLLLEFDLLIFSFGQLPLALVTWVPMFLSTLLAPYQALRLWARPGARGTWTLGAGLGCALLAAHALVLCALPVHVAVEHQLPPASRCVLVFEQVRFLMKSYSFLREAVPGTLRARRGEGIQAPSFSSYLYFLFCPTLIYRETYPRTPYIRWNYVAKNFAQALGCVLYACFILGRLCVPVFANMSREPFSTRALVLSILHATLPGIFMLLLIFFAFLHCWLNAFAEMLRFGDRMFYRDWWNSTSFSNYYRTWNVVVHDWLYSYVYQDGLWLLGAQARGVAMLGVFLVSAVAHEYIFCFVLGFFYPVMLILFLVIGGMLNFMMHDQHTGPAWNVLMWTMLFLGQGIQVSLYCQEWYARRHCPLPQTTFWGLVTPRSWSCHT

[7] = molecular target: T3, Sterol O-acyltransferase 1 (Cricetulus griseus, UniProt Q60457); assay: Inhibition of SOAT1 in CHO cell microsomal fraction using [1-14C]oleoyl-CoA as substrate measured after 5 mins by TLC based method
T3 sequence (Q60457 whole entry): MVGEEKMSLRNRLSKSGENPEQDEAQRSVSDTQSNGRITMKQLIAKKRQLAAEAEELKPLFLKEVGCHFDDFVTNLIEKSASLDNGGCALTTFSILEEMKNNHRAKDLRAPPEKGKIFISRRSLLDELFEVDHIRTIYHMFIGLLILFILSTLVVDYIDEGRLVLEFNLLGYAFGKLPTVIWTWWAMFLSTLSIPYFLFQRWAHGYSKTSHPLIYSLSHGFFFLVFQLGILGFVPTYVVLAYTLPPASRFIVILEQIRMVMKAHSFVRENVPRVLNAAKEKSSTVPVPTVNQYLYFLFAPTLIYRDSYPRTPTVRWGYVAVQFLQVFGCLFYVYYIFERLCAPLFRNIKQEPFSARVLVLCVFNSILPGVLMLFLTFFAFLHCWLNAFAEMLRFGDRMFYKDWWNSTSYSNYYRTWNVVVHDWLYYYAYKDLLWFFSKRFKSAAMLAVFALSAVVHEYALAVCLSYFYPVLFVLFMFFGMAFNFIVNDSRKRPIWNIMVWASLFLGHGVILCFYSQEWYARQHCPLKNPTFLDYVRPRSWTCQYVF

[8] = Inhibition of SOAT2 in CHO cell microsomal fraction using [1-14C]oleoyl-CoA as substrate measured after 5 mins by TLC based method; design: species or system Cricetulus griseus

Row | SMILES | IC50 [1] [µM] | IC50 [2] [µM] | IC50 [3] [µM] | IC50 [4] [µM] | IC50 [5] [µM] | IC50 [6] [µM] | IC50 [7] [µM] | IC50 [8] [µM] | IC50 (CHO-K1) [µM]
1 | CC(=O)Oc1ccc(OC(C)=O)c(C[C@]2(C)[C@@H](C)CC[C@]3(C)C(C)=CCC[C@@H]23)c1 | 16.5 | 23.5 |  |  |  |  |  |  | > 24.4
2 | CC(=O)Oc1ccc(O)cc1C[C@]1(C)[C@@H](C)CC[C@]2(C)C(C)=CCC[C@@H]12 | 13.7 | > 27.3 |  |  |  |  |  |  | > 27.3
3 | CC1=CCC[C@H]2[C@](C)(CC3=CC(=O)C=C(N)C3=O)[C@@H](C)CC[C@]12C | 13.2 | 27.5 |  |  |  |  |  |  | > 30.9
4 | C=C1CCC[C@H]2[C@](C)(Cc3cc(OC(C)=O)ccc3O)[C@@H](C)CC[C@]12C | 16 | > 27.3 |  |  |  |  |  |  | > 27.3
5 | CCC(=O)Oc1ccc(OC(=O)CC)c(C[C@]2(C)[C@@H](C)CC[C@]3(C)C(C)=CCC[C@@H]23)c1 | 16.7 | 13.5 |  |  |  |  |  |  | > 22.8
6 | CC(=O)Oc1ccc(O)c(C[C@]2(C)[C@@H](C)CC[C@]3(C)C(C)=CCC[C@@H]23)c1 | 23.1 | > 27.3 |  |  |  |  |  |  | > 27.3
7 | CC1=CCC[C@H]2[C@]3(C)Cc4cc(O)ccc4O[C@]3(C)CC[C@]12C | 13.9 | > 31.1 |  |  |  |  |  |  | > 31.1

Compounds with a lower IC50 [1], results first:

Row | IC50 [1] [µM] | IC50 [2] [µM] | IC50 [3] [µM] | IC50 [4] [µM] | IC50 [5] [µM] | IC50 [6] [µM] | IC50 [7] [µM] | IC50 [8] [µM] | SMILES | IC50 (CHO-K1) [µM]
8 | 11.9 | > 27.3 |  |  |  |  |  |  | C=C1CCC[C@H]2[C@](C)(Cc3cc(O)ccc3OC(C)=O)[C@@H](C)CC[C@]12C | > 27.3
9 | 11.4 | > 29.6 |  |  |  |  |  |  | COc1ccc(O)c(C[C@]2(C)[C@@H](C)CC[C@]3(C)C(C)=CCC[C@@H]23)c1 | > 29.6
10 | 11 | 14.2 | 15.6 | 44.3 | 19.2 | 19.1 | 32 | 14 | C=C1CCC[C@H]2[C@](C)(Cc3cc(O)ccc3O)[C@@H](C)CC[C@]12C | > 30.9
11 | 11 | > 22.8 |  |  |  |  |  |  | C=C1CCC[C@H]2[C@](C)(Cc3cc(OC(=O)CC)ccc3OC(=O)CC)[C@@H](C)CC[C@]12C | > 22.8
12 | 10.8 | > 24.4 |  |  |  |  |  |  | C=C1CCC[C@H]2[C@](C)(Cc3cc(OC(C)=O)ccc3OC(C)=O)[C@@H](C)CC[C@]12C | > 24.4
13 | 10.4 | > 29.6 |  |  |  |  |  |  | C=C1CCC[C@H]2[C@](C)(Cc3cc(OC)ccc3O)[C@@H](C)CC[C@]12C | > 29.6
14 | 5.74 | 6.8 | 7.31 | 20 | 14.2 | 14.8 | 12 | 8.1 | CC1=CCC[C@H]2[C@](C)(Cc3cc(O)ccc3O)[C@@H](C)CC[C@]12C [AVAROL] | > 30.9
